Reference: the supplement of paper PMC10307832

Columns and labels:
Assay in all cases: relative viability (nuclei count vs DMSO), 5 days (fraction); higher = more cells survive
[1] = test system: ABC-1
Summary of the method: (§1)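 For relative viability, nuclei counts in treated wells were divided by those in vehicle wells. Lung cancer cell lines had been pin-tool dosed in 1536-well plates the day after seeding and cultured for 5 days, then fixed and stained in one step (final 0.05% Triton X-100, 1% formaldehyde, 1 ug/ml Hoechst) and imaged at 4×. Doses were one drug alone or a fixed anchor-drug dose plus five library-drug doses (not always all listed) in √10 steps, and values are duplicate-plate medians.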

[2] = test system: BEN
Summary of the method: as §1

[3] = test system: EPLC-272H
Summary of the method: as §1

[4] = test system: HCC-827
Summary of the method: as §1

[5] = test system: HOP-62
Summary of the method: as §1

[6] = test system: LU99A
Summary of the method: as §1

[7] = test system: NCI-H1355
Summary of the method: as §1

[8] = test system: NCI-H1666
Summary of the method: as §1

[9] = test system: NCI-H1975
Summary of the method: as §1

[10] = test system: NCI-H2170
Summary of the method: as §1

[11] = test system: NCI-H23
Summary of the method: as §1

[12] = test system: NCI-H2405
Summary of the method: as §1

[13] = test system: NCI-H3122
Summary of the method: as §1

[14] = test system: NCI-H322M
Summary of the method: as §1

[15] = test system: NCI-H358
Summary of the method: as §1

[16] = test system: NCI-H520
Summary of the method: as §1

[17] = test system: NCI-H596
Summary of the method: as §1

[18] = test system: NCI-H647
Summary of the method: as §1

[19] = test system: NCI-H727
Summary of the method: as §1

[20] = test system: NCI-H838
Summary of the method: as §1

[21] = test system: PC-14
Summary of the method: as §1

[22] = test system: UMC-11
Summary of the method: as §1

O=C(O)CCCCC(CCSCc1ccccc1)SCc1ccccc1 (centres undefined) [CPI-613] + COc1cc2c(Oc3ccc(NC(=O)C4(C(=O)Nc5ccc(F)cc5)CC4)cc3F)ccnc2cc1OCCCN1CCOCC1 [Foretinib] (partner 0.25 µM)
relative viability ([1]; first compound 5 µM): 1.14
relative viability ([1]; first compound 15.81 µM): 0.929
relative viability ([1]; first compound 50 µM): 0.996
relative viability ([1]; first compound 158.11 µM): 0.243
relative viability ([1]; first compound 500 µM): 0.0969
relative viability ([2]; first compound 5 µM): 0.728
relative viability ([2]; first compound 15.81 µM): 0.443
relative viability ([2]; first compound 50 µM): 0.602
relative viability ([2]; first compound 158.11 µM): 0.499
relative viability ([2]; first compound 500 µM): 0.508
relative viability ([3]; first compound 5 µM): 0.613
relative viability ([3]; first compound 15.81 µM): 0.597
relative viability ([3]; first compound 50 µM): 0.69
relative viability ([3]; first compound 158.11 µM): 0.158
relative viability ([3]; first compound 500 µM): 0.0081
relative viability ([4]; first compound 5 µM): 1.04
relative viability ([4]; first compound 15.81 µM): 1.02
relative viability ([4]; first compound 50 µM): 1
relative viability ([4]; first compound 158.11 µM): 0.416
relative viability ([4]; first compound 500 µM): 0.312
relative viability ([5]; first compound 5 µM): 1.06
relative viability ([5]; first compound 15.81 µM): 1.04
relative viability ([5]; first compound 50 µM): 1.11
relative viability ([5]; first compound 158.11 µM): 0.39
relative viability ([5]; first compound 500 µM): 0.231
relative viability ([6]; first compound 5 µM): 0.83
relative viability ([6]; first compound 15.81 µM): 0.776
relative viability ([6]; first compound 50 µM): 0.733
relative viability ([6]; first compound 158.11 µM): 0.461
relative viability ([6]; first compound 500 µM): 0.112
relative viability ([7]; first compound 5 µM): 0.941
relative viability ([7]; first compound 15.81 µM): 0.94
relative viability ([7]; first compound 50 µM): 0.998
relative viability ([7]; first compound 158.11 µM): 0.455
relative viability ([7]; first compound 500 µM): 0.137
relative viability ([8]; first compound 5 µM): 0.944
relative viability ([8]; first compound 15.81 µM): 0.901
relative viability ([8]; first compound 50 µM): 0.971
relative viability ([8]; first compound 158.11 µM): 0.397
relative viability ([8]; first compound 500 µM): 0.206
relative viability ([9]; first compound 5 µM): 0.943
relative viability ([9]; first compound 15.81 µM): 0.964
relative viability ([9]; first compound 50 µM): 0.963
relative viability ([9]; first compound 158.11 µM): 0.713
relative viability ([9]; first compound 500 µM): 0.151
relative viability ([10]; first compound 5 µM): 0.767
relative viability ([10]; first compound 15.81 µM): 0.906
relative viability ([10]; first compound 50 µM): 0.929
relative viability ([10]; first compound 158.11 µM): 0.795
relative viability ([10]; first compound 500 µM): 0.139
relative viability ([11]; first compound 5 µM): 1.03
relative viability ([11]; first compound 15.81 µM): 0.917
relative viability ([11]; first compound 50 µM): 0.985
relative viability ([11]; first compound 158.11 µM): 0.402
relative viability ([11]; first compound 500 µM): 0.0153
relative viability ([12]; first compound 5 µM): 1.08
relative viability ([12]; first compound 15.81 µM): 1.03
relative viability ([12]; first compound 50 µM): 0.995
relative viability ([12]; first compound 158.11 µM): 0.93
relative viability ([12]; first compound 500 µM): 0.876
relative viability ([13]; first compound 5 µM): 0.989
relative viability ([13]; first compound 15.81 µM): 0.895
relative viability ([13]; first compound 50 µM): 0.971
relative viability ([13]; first compound 158.11 µM): 0.858
relative viability ([13]; first compound 500 µM): 0.0742
relative viability ([14]; first compound 5 µM): 0.969
relative viability ([14]; first compound 15.81 µM): 0.972
relative viability ([14]; first compound 50 µM): 1.04
relative viability ([14]; first compound 158.11 µM): 0.689
relative viability ([14]; first compound 500 µM): 0.0324
relative viability ([15]; first compound 15.81 µM): 0.648
relative viability ([15]; first compound 50 µM): 0.713
relative viability ([15]; first compound 158.11 µM): 0.369
relative viability ([15]; first compound 500 µM): 0.0356
relative viability ([16]; first compound 5 µM): 0.755
relative viability ([16]; first compound 15.81 µM): 0.784
relative viability ([16]; first compound 50 µM): 0.623
relative viability ([16]; first compound 158.11 µM): 0.523
relative viability ([16]; first compound 500 µM): 0.142
relative viability ([17]; first compound 5 µM): 0.862
relative viability ([17]; first compound 15.81 µM): 0.969
relative viability ([17]; first compound 50 µM): 0.813
relative viability ([17]; first compound 158.11 µM): 0.592
relative viability ([17]; first compound 500 µM): 0.0375
relative viability ([18]; first compound 5 µM): 0.992
relative viability ([18]; first compound 15.81 µM): 1.2
relative viability ([18]; first compound 50 µM): 1.15
relative viability ([18]; first compound 158.11 µM): 0.34
relative viability ([18]; first compound 500 µM): 0.0186
relative viability ([19]; first compound 5 µM): 0.854
relative viability ([19]; first compound 15.81 µM): 1.39
relative viability ([19]; first compound 50 µM): 0.865
relative viability ([19]; first compound 158.11 µM): 0.572
relative viability ([19]; first compound 500 µM): 0.47
relative viability ([20]; first compound 5 µM): 0.98
relative viability ([20]; first compound 15.81 µM): 1.02
relative viability ([20]; first compound 50 µM): 1.03
relative viability ([20]; first compound 158.11 µM): 0.657
relative viability ([20]; first compound 500 µM): 0.116
relative viability ([21]; first compound 5 µM): 0.953
relative viability ([21]; first compound 15.81 µM): 0.862
relative viability ([21]; first compound 50 µM): 0.852
relative viability ([21]; first compound 158.11 µM): 0.845
relative viability ([21]; first compound 500 µM): 0.991
relative viability ([22]; first compound 5 µM): 0.992
relative viability ([22]; first compound 15.81 µM): 1.04
relative viability ([22]; first compound 50 µM): 0.995
relative viability ([22]; first compound 158.11 µM): 0.169
relative viability ([22]; first compound 500 µM): 0.131
